Measurements from ChEMBL document CHEMBL5724709, “EUbOPEN Chemogenomics Library - IncuCyte” (2024).

How the values were obtained:
Assay type in all cases: toxicity, cell-based
HEK-293T = experiment: Incucyte cell viability with HEK293T; settings: human, 24 h, 10 µM, compound concentration 10 uM
U2OS = experiment: Incucyte cell viability with U2OS; settings: human, 24 h, 10 µM, compound concentration 10 uM
Fibroblast = experiment: Incucyte cell viability with human fibroblast; settings: 24 h, 10 µM, compound concentration 10 uM
Further: unitless GR value; below 1 slowed growth and below 0 cell loss.

Compound: COc1cc(-c2cn(C)c(=O)c3cnccc23)cc(OC)c1CN(C)CC(=O)NCCOCCOCCNc1cccc2c1C(=O)N(C1CCC(=O)NC1=O)C2=O (stereo unspecified)
- Growth Rate (HEK-293T; replicate number 1): 0.8
- Growth Rate (HEK-293T; replicate number 2): 0.98
- Growth Rate (U2OS; replicate number 1): 0.78
- Growth Rate (U2OS; replicate number 2): 0.96
- Growth Rate (Fibroblast; replicate number 1): 0.26
- Growth Rate (Fibroblast; replicate number 2): 0.72

Compound: C[C@H](NC(=O)c1cn(C2(C#N)CC2)cn1)C(=O)Nc1nc(-c2cccc(-c3ccn(C)n3)c2)cs1
- Growth Rate (HEK-293T; replicate number 1): 0.9
- Growth Rate (HEK-293T; replicate number 2): 0.86
- Growth Rate (U2OS; replicate number 1): 0.33
- Growth Rate (U2OS; replicate number 2): 1
- Growth Rate (Fibroblast; replicate number 1): 0.43
- Growth Rate (Fibroblast; replicate number 2): 1

Compound: CCn1c(=O)c(C)cn(Cc2nnc(-c3ccc(F)c(O)c3F)s2)c1=O
- Growth Rate (HEK-293T; replicate number 1): 1
- Growth Rate (HEK-293T; replicate number 2): 0.97
- Growth Rate (U2OS; replicate number 1): 1
- Growth Rate (U2OS; replicate number 2): 0.92
- Growth Rate (Fibroblast; replicate number 1): 0.03
- Growth Rate (Fibroblast; replicate number 2): 1

Compound: COCCOCCn1nc2c(c1C)-c1c(Cl)ccc3c1c(C)c(C(=O)O)n3CCCOc1cc(cc3c(F)c(Cl)ccc13)CCc1cc(nn1C)CSC2
- Growth Rate (HEK-293T; replicate number 1): 0.27
- Growth Rate (HEK-293T; replicate number 2): 0.51
- Growth Rate (U2OS; replicate number 1): 0.15
- Growth Rate (U2OS; replicate number 2): 0.75
- Growth Rate (Fibroblast; replicate number 1): -0.35
- Growth Rate (Fibroblast; replicate number 2): -0.82

Compound: Cc1cc(C(=O)N2CCN(C3CN(C(=O)c4ccc(-c5ccccc5)cc4)C3)CC2)no1
- Growth Rate (HEK-293T; replicate number 1): 0.61
- Growth Rate (HEK-293T; replicate number 2): 0.63
- Growth Rate (U2OS; replicate number 1): 0.79
- Growth Rate (U2OS; replicate number 2): 1
- Growth Rate (Fibroblast; replicate number 1): 0.37
- Growth Rate (Fibroblast; replicate number 2): 0.27

Compound: CCn1c(=O)c(C)cn(Cc2nnc(-c3ccc(F)c(OC)c3F)s2)c1=O
- Growth Rate (HEK-293T; replicate number 1): 0.83
- Growth Rate (HEK-293T; replicate number 2): 0.9
- Growth Rate (U2OS; replicate number 1): 0.26
- Growth Rate (U2OS; replicate number 2): 1
- Growth Rate (Fibroblast; replicate number 1): 0.35
- Growth Rate (Fibroblast; replicate number 2): 1

Compound: COC[C@H](NC(=O)c1ccn(S(C)(=O)=O)c1)C(=O)Nc1nc(-c2cccc(-c3ccn(C)n3)c2)cs1
- Growth Rate (HEK-293T; replicate number 1): 1
- Growth Rate (U2OS; replicate number 1): 0.77
- Growth Rate (Fibroblast; replicate number 1): 0.89
- Growth Rate (Fibroblast; replicate number 2): 1

Compound: CCC[C@H]1CNCc2c1[nH]c(=O)c(C#N)c2N1CCC2(CC1)CC2.Cl
- Growth Rate (HEK-293T; replicate number 1): 0.75
- Growth Rate (HEK-293T; replicate number 2): 0.9
- Growth Rate (U2OS; replicate number 1): 0.97
- Growth Rate (U2OS; replicate number 2): 1
- Growth Rate (Fibroblast; replicate number 1): -0.11
- Growth Rate (Fibroblast; replicate number 2): 0.09

Compound: CCC[C@@H]1CNCc2c1[nH]c(=O)c(C#N)c2N1CCC2(CC1)CC2.Cl
- Growth Rate (HEK-293T; replicate number 1): 0.66
- Growth Rate (HEK-293T; replicate number 2): 0.97
- Growth Rate (U2OS; replicate number 1): 0.72
- Growth Rate (U2OS; replicate number 2): 0.8
- Growth Rate (Fibroblast; replicate number 1): 0.62
- Growth Rate (Fibroblast; replicate number 2): 0.92

Compound: Cn1ncc2c(-c3c(-c4ccc(F)cn4)nn4c3COC(C)(C)C4)ccnc21
- Growth Rate (HEK-293T; replicate number 1): 0.85
- Growth Rate (HEK-293T; replicate number 2): 0.8
- Growth Rate (U2OS; replicate number 1): 0.55
- Growth Rate (U2OS; replicate number 2): 0.95
- Growth Rate (Fibroblast; replicate number 1): 0.66
- Growth Rate (Fibroblast; replicate number 2): 1

Compound: O=C(c1ccc2[nH]ccc2c1)N1CCN(S(=O)(=O)c2ccc3[nH]c(=O)oc3c2)CC1
- Growth Rate (HEK-293T; replicate number 1): 0.91
- Growth Rate (HEK-293T; replicate number 2): 1
- Growth Rate (U2OS; replicate number 1): 0.5
- Growth Rate (U2OS; replicate number 2): 0.82
- Growth Rate (Fibroblast; replicate number 1): 0.24
- Growth Rate (Fibroblast; replicate number 2): 1

Compound: CNC(=O)c1cc(Nc2ccnc(Nc3ccc(CCNC(=O)OC(C)(C)C)cc3)n2)[nH]n1
- Growth Rate (HEK-293T; replicate number 1): 0.07
- Growth Rate (HEK-293T; replicate number 2): 0.24
- Growth Rate (U2OS; replicate number 1): 0.07
- Growth Rate (U2OS; replicate number 2): 0.79
- Growth Rate (Fibroblast; replicate number 1): 1

Compound: O=C(Nc1c[nH]nc1C(=O)NC1CCNCC1)c1cc(F)cc(F)c1
- Growth Rate (HEK-293T; replicate number 1): 0.15
- Growth Rate (HEK-293T; replicate number 2): 0.14
- Growth Rate (U2OS; replicate number 1): -0.13
- Growth Rate (U2OS; replicate number 2): 0.19
- Growth Rate (Fibroblast; replicate number 1): -0.45
- Growth Rate (Fibroblast; replicate number 2): -0.55

Compound: Cn1cc(NC(=O)c2cc(F)cc(F)c2)c(C(=O)NC2CCNCC2)n1
- Growth Rate (HEK-293T; replicate number 1): 0.67
- Growth Rate (HEK-293T; replicate number 2): 0.9
- Growth Rate (U2OS; replicate number 1): 0.63
- Growth Rate (U2OS; replicate number 2): 0.71
- Growth Rate (Fibroblast; replicate number 1): 0.67
- Growth Rate (Fibroblast; replicate number 2): 1

Compound: CC(C)c1cnc(CSc2cnc(NC(=O)C3CCNCC3)s2)o1
- Growth Rate (HEK-293T; replicate number 1): -0.28
- Growth Rate (HEK-293T; replicate number 2): -0.09
- Growth Rate (U2OS; replicate number 1): -0.6
- Growth Rate (U2OS; replicate number 2): -0.31
- Growth Rate (Fibroblast; replicate number 1): -0.05
- Growth Rate (Fibroblast; replicate number 2): -0.46

Compound: CN1CCN(c2cc(C(=O)Nc3ncc(SCc4cccc(C(F)(F)F)c4)s3)ccn2)CC1
- Growth Rate (HEK-293T; replicate number 1): 0.24
- Growth Rate (HEK-293T; replicate number 2): 0.59
- Growth Rate (U2OS; replicate number 1): 0.31
- Growth Rate (U2OS; replicate number 2): 0.48
- Growth Rate (Fibroblast; replicate number 1): 0.19
- Growth Rate (Fibroblast; replicate number 2): 1

Compound: CC(C)(C)OC(=O)Nc1ccc(CNc2nccc(Nc3cc(C(=O)OC(C)(C)C)[nH]n3)n2)cc1
- Growth Rate (HEK-293T; replicate number 1): -0.38
- Growth Rate (HEK-293T; replicate number 2): -0.24
- Growth Rate (U2OS; replicate number 1): 0.42
- Growth Rate (U2OS; replicate number 2): 0.67
- Growth Rate (Fibroblast; replicate number 1): 1
- Growth Rate (Fibroblast; replicate number 2): 0.07

Compound: O=C(NCC1CCOCC1)c1n[nH]cc1NC(=O)c1c(F)cccc1F
- Growth Rate (HEK-293T; replicate number 1): 0.35
- Growth Rate (HEK-293T; replicate number 2): 0.49
- Growth Rate (U2OS; replicate number 1): 0.03
- Growth Rate (U2OS; replicate number 2): 0.42
- Growth Rate (Fibroblast; replicate number 1): -0.35
- Growth Rate (Fibroblast; replicate number 2): 0.3

Compound: CNC(=O)c1cnc(N2CCC[C@H](N)C2)nc1Nc1cc(C(C)C)nc(C(C)C)c1
- Growth Rate (HEK-293T; replicate number 1): -0.35
- Growth Rate (HEK-293T; replicate number 2): -0.02
- Growth Rate (U2OS; replicate number 1): -0.44
- Growth Rate (U2OS; replicate number 2): 0.05
- Growth Rate (Fibroblast; replicate number 1): 0.72
- Growth Rate (Fibroblast; replicate number 2): 0.44
